Patent publication US20050148534A1, “Small molecule compositions and methods for increasing drug efficiency using compositions thereof” (priority 2003, published 2005)
Like-named read-outs stand apart in the source and are kept apart here.

What was measured:
[1] = Serum stability in RPMI1640 medium containing 10% fetal bovine serum; type: in vitro ADME
Experimental: The stability of conjugates was measured in RPMI1640 cell culture medium containing 10% fetal bovine serum. The serum-containing medium was pre-warmed at 37° C. for 3 min prior to addition of test articles. Test articles, prepared in DMSO as 5 mM stocks, were added to the cell culture media to a final concentration of […]. Aliquots ([…]) were withdrawn in triplicate at 0, 4, 8, 24 and 72 hours and combined with the same volume of ice-cold acetonitrile to terminate the reaction. The mixture was centrifuged at 2,000×g for 10 minutes. One part of the supernatant was mixed with four parts of deionized water to bring down the percentage of organic solvent. The diluted samples were then assayed by LC/MS for the test article. The natural log of the percent remaining was plotted versus time. A linear fit was used to determine the rate constant. The fit was truncated after the percent of remaining test article was less than 10%. The elimination half-lives associated with the disappearance of test articles were determined to compare their relative stability. The assays were carried out by Absorption Systems (Exton, Pa.).

[2] = tested on: HT-29 colorectal carcinoma; experiment: Cytotoxicity assay (monolayer), HT-29; type: cell-based; conditions: Homo sapiens
Experimental: Statistical Assoc., 81, 991-999, 1986.
Monolayer assays with tumor cell lines (MCF-7 breast carcinoma and HT-29 colorectal carcinoma from ATCC) were carried out in triplicate in 96-well plates with RPMI1640 medium containing 5% fetal bovine serum, 100 U/ml penicillin and 100 μg/ml streptomycin. Normal human foreskin fibroblasts (HFF #CC-2509) were from Cambrex and were cultured in FGM-2 medium. Exponentially growing cells (5,000 MCF-7 or HT-29; 1,500 HFF) were plated in 100 μl medium and incubated overnight (5% CO2, 37° C.). Compounds (20 pM to 20 μM final concentration, 6-8 doses) and vehicle (DMSO) controls were added and the incubation was continued for an additional 72 hours. Final cell density was determined by incubating cultures with 25 μl AlamarBlue reagent (BioSource, Camarillo, Calif.) for 4 hours, followed by determination of fluorescence at excitation of 544 nm and emission of 590 nm with a SpectroMax Gemini EM fluorescence plate reader (Molecular Devices, Sunnyvale, Calif.). EC50 values were generated from dose-response curves by a 4-parameter method using Softmax PRO software. Mean EC50s (±SD) represent the average of all tests carried out for all lots of a given compound. […] Statistical Assoc., 81, 991-999 (1986).

## CC(=O)O[C@H]1C(=O)[C@@]2(C)[C@H]([C@H](OC(=O)c3ccccc3)[C@]3(O)C[C@H](OC(=O)[C@H](O)[C@@H](NC(=O)c4ccccc4)c4ccccc4)C(C)=C1C3(C)C)[C@]1(OC(C)=O)CO[C@@H]1C[C@@H]2O [Paclitaxel]
[1]; 37° C., medium with 10% fetal bovine serum, 0 hr
  Relative Percent Remaining at 0 hr: 100%
[1]; 37° C., medium with 10% fetal bovine serum, 4 hr
  Relative Percent Remaining at 4 hr: 73%
[1]; 37° C., medium with 10% fetal bovine serum, 8 hr
  Relative Percent Remaining at 8 hr: 59%
[1]; 37° C., medium with 10% fetal bovine serum, 24 hr
  Relative Percent Remaining at 24 hr: 28%
[1]; 37° C., medium with 10% fetal bovine serum, 72 hr
  Relative Percent Remaining at 72 hr: <3.0%
[1]; bovine
  half-life: 11 h
[2]; mean ± SD, read-out: HT-29 Monolayer EC50
  EC50: 5 ± 3 nM
[2]; monolayer, 72 hours, AlamarBlue, read-out: HT29 (EC50 Ave) ML
  EC50: < 100 nM
